In ChEMBL document CHEMBL1201862, “PubChem BioAssay data set” (2004):
Activity calls are given as the source filed them.

Key:
[1] = cytotoxicity toward NIH3T3 fibroblasts, dose response, counter-screen, cell-based, ATP luminescence, mouse fibroblasts (AID 2010); format: functional;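 further: cells exposed to compound for about 90 hours before reading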
[2] = inhibitors of intracellular T. cruzi replication, confirmation, NIH3T3 host cells, beta-gal luminescence (AID 2044); format: functional, cell-based;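 further: intracellular parasites grown in NIH/3T3 mouse fibroblasts as host cells; luminescent beta-galactosidase reporter signal from transgenic T. cruzi replicating inside host cells; inhibitors lower the luminescence signal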
Streptokinase A = biological target: T1, Streptokinase A (Streptococcus pyogenes serotype M1, UniProt P10520); experiment: S. pyogenes streptokinase expression inhibitors, potency, dose response, plasminogen activation absorbance, OD405 (AID 1914); format: functional, Streptococcus pyogenes M1 GAS;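 further: secreted streptokinase activity via plasminogen activation per viability signal from cell pellet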
T1 sequence (P10520 whole entry): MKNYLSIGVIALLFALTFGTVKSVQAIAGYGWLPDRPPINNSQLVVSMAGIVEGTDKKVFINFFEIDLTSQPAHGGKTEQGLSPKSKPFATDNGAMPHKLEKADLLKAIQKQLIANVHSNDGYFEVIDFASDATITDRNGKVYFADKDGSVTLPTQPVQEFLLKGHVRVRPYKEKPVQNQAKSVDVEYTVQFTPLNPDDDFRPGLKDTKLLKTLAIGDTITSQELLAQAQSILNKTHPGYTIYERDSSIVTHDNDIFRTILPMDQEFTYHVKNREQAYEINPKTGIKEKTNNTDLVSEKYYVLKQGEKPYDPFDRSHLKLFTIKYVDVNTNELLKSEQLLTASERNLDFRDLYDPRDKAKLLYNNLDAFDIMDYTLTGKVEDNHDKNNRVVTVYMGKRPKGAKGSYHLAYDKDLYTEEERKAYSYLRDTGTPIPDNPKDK

Streptococcus = experiment: Group A Streptococcus viability loss, dose response, counter-screen for streptokinase expression inhibitor project, luminescence, BacTiterGlo (AID 1915); format: functional, organism-based;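 further: potency for reduction of bacterial viability or growth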
[3] = AlphaScreen signal interference compounds, dose response, artefact control for ARNT-TACC3 interaction inhibitor project, biochemical, luminescence, cherry-pick (AID 651705); format: functional;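 further: AlphaScreen bead proximity signal that flags compounds interfering with the detection technology; potency reflects signal decrease which marks the compound as an assay artifact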
[4] = tested on: Streptococcus sp. 'group A'; experiment: growth inhibition of control SK(-) GAS strain, dose response, counter-screen for streptokinase expression inhibitor project, luminescence, kanamycin, BacTiterGlo, confirmation (AID 1900); format: functional, organism-based
[5] = ZM109 Env clade C HIV-1 fusion inhibitors, dose response, HeLa effector, CEM target cells, luciferase, cherry-pick (AID 652058); format: functional, cell-based
[6] = CEM21 lymphoblast cell cytotoxicity, dose response, cytotoxicity control for viral fusion inhibitor project, CellTiter-Glo luminescence, cherry-picked (AID 652042); format: functional, cell-based;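 further: potency for signal decrease meaning cytotoxicity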
[7] = inhibitors of HIV Env-driven cell fusion, dose response, cherry-pick (AID 652057); format: functional, cell-based
[8] = inhibitors of clade B AD8 Env fusion, dose response, cell-based, cherry-pick (AID 652062); format: functional;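 further: luciferase signal from cell-cell fusion driven by HIV-1 clade B AD8 Env; potency is for inhibitors of fusion seen as a drop in luminescence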
[9] = biological target: T2, DNA repair and recombination protein RAD54-like (Homo sapiens, UniProt Q92698); experiment: inhibitors of human RAD54 branch migration, confirmation, biochemical, fluorescence, cherry-picked samples, dose series (AID 651657); format: functional
T2 sequence (Q92698 whole entry): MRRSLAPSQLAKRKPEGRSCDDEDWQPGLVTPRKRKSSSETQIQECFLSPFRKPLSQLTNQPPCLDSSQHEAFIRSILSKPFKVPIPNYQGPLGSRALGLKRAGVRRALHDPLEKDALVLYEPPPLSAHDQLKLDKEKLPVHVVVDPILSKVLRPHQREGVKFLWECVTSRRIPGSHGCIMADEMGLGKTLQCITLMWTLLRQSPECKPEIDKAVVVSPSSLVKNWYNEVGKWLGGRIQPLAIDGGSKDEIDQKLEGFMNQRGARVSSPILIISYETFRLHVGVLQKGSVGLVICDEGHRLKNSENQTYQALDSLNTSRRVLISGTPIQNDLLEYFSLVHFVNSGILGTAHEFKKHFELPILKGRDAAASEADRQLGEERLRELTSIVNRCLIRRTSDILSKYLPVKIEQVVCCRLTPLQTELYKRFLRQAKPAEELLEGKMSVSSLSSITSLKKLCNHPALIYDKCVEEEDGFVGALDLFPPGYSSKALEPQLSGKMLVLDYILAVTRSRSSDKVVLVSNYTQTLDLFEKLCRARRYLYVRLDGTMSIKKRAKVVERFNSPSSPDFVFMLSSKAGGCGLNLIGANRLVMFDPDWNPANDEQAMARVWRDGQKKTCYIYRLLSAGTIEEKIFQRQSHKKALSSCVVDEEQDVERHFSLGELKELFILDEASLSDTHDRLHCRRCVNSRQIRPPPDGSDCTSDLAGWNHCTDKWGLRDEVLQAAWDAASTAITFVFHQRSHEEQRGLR

[10] = biological target: T3, Trace amine-associated receptor 1 (Homo sapiens, UniProt Q96RJ0); experiment: Counterscreen for agonists of the human trace amine associated receptor 1 (hTAAR1): Fluorescence-based cell-based high throughput dose response assay to identify hTAAR1 agonist that also desensitize TAAR1 receptor response.; format: functional
T3 sequence (Q96RJ0 whole entry): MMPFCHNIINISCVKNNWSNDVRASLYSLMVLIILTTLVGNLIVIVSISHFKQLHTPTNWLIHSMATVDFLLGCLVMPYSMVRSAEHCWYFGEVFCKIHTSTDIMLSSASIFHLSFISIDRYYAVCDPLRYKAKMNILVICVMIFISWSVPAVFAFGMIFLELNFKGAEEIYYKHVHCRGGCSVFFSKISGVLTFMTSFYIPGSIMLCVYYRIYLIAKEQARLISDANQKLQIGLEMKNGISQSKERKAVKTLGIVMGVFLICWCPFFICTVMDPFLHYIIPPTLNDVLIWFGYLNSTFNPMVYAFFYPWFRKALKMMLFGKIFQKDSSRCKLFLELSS

[11] = biological target: T3, Trace amine-associated receptor 1; experiment: Fluorescence-based cell-based high throughput dose response assay to identify agonists of the human trace amine associated receptor 1 (TAAR1).; format: functional
cells [12] = format: functional, cell-based
cells [13] = format: functional, cell-based; remark: listed apart in the source
Cytochrome P450 1A2 = biological target: T4, Cytochrome P450 1A2 (Homo sapiens, UniProt P05177);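 further: PubChem cytochrome P450 panel assay, CYP1A2 panel member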
T4 sequence (P05177 whole entry): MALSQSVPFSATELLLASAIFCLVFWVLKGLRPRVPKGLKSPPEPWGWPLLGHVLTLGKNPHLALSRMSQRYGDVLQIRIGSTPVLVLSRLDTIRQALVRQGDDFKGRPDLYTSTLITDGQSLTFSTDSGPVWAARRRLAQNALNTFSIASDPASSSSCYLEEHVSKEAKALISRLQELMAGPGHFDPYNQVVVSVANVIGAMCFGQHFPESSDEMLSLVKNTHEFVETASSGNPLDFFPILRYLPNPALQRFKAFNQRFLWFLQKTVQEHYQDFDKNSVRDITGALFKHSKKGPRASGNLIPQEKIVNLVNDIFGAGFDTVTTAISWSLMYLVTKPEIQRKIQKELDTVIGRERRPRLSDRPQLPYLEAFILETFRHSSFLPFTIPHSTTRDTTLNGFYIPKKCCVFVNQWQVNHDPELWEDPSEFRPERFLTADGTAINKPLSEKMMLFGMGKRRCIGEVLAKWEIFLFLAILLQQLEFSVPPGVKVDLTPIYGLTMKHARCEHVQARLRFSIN

Cytochrome P450 2C9 = Cytochrome P450 2C9 (Homo sapiens, UniProt P11712)
[14] = biological target: T5, Rac GTPase-activating protein 1 (Homo sapiens, UniProt Q9H0H5); experiment: MgcRacGAP GTPase-activating activity inhibitors, confirmation, biochemical, ADP Hunter fluorescence, primary and confirmatory (AID 624330); format: functional
T5 sequence (Q9H0H5 whole entry): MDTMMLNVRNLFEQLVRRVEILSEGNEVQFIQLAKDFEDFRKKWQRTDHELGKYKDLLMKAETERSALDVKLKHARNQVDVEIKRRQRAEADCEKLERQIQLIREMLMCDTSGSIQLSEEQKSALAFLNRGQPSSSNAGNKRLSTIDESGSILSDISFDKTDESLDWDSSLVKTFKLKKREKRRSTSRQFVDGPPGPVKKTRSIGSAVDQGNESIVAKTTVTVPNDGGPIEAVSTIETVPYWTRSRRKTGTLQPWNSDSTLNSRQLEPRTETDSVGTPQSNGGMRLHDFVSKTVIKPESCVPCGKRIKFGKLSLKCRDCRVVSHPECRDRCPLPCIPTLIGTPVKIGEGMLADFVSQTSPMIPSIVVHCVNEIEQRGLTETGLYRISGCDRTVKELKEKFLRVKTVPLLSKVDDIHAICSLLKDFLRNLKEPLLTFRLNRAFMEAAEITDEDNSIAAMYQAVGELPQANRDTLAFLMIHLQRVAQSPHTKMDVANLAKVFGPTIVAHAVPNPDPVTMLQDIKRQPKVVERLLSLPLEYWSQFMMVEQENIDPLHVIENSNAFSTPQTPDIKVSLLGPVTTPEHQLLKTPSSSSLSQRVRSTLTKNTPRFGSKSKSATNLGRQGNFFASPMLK

[15] = HeLa cell cytotoxicity, dose response, cytotoxicity control for MgcRacGAP inhibitor project (AID 624300); format: functional
[16] = biological target: T6, DNA repair protein RAD52 homolog (Homo sapiens, UniProt P43351); format: functional, biochemical
T6 sequence (P43351 whole entry): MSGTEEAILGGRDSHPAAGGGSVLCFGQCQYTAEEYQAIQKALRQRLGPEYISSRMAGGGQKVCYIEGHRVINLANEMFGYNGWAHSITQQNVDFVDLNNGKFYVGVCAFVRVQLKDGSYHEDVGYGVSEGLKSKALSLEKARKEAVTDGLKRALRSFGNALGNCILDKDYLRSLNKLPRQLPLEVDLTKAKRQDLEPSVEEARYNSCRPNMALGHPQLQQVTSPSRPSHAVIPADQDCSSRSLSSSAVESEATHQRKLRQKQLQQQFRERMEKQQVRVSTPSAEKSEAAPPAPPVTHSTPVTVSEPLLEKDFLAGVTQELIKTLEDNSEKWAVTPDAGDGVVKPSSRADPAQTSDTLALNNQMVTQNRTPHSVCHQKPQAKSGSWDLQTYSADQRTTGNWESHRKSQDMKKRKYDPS

[17] = biological target: T7, Ubiquitin-conjugating enzyme E2 N (Homo sapiens, UniProt P61088); format: functional;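 further: Dose-response confirmation in a TR-FRET assay detecting UBC13-driven polyubiquitin chain formation, inhibition measured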
T7 sequence (P61088 whole entry): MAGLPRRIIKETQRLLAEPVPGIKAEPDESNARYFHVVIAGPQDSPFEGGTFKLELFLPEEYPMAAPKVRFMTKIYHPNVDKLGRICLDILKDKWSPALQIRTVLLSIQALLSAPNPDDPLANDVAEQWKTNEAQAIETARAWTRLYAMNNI

Chain of Cytochrome P450 2C9 (P11712 whole entry): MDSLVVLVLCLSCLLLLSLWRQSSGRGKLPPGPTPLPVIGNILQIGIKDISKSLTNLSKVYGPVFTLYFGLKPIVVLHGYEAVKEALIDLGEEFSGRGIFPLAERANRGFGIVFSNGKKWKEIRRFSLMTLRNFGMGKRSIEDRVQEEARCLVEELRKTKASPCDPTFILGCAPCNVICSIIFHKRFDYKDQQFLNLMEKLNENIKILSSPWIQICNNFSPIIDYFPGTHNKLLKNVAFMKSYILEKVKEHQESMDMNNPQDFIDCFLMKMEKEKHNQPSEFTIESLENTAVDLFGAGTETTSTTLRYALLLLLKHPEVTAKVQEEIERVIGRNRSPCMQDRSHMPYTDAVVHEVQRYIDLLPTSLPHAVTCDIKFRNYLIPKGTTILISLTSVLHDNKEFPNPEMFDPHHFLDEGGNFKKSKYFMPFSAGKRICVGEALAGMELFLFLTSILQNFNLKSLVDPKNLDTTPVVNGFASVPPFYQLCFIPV

CCOc1ccc(NC(=O)c2c(NC(=O)CNCCN3CCOCC3)sc3c2CCC3)cc1
EC50 [1]: > 30 µM (not active) | EC50 [2]: 1.74 µM (active) | EC50 (Streptokinase A): > 150 µM (not active) | EC50 (Streptococcus): 59.5 µM (active) | AC50 [3]: 75.1 µM (active) | EC50 [4]: 1.95 µM (active)

COc1ccc(NC(=O)Nc2ccc3c(c2)CC(=O)N([C@@H](C)CO)C[C@@H](C)[C@H](CN(C)Cc2ccc(C(F)(F)F)cc2)O3)cc1
AC50 [5]: 2.67 µM (active) | AC50 [6]: 23.2 µM (active) | AC50 [7]: 6.8 µM (active) | AC50 [8]: 27 µM (active)

CCOc1cc2nc(-c3ccc(OC)c(OC)c3)nc(NCCCN3CCOCC3)c2cc1OC
AC50 [3]: 130 µM (active) | AC50 [9]: 5.2 µM (active)

Cc1cc(S(=O)(=O)Nc2cccc(Cl)c2)c(C)s1
IC50 [10]: 8.66 µM (active) | EC50 [11]: 4.88 µM (active) | EC50 (cells [12]): > 29.9 µM (inactive) | IC50 (cells [13]): > 29.9 µM (inactive)

O=C(CSc1cccc2cccnc12)OCC(=O)c1ccccc1
AC50 [3]: 92.5 µM (active) | AC50 (Cytochrome P450 1A2): 20 µM (inconclusive) | AC50 (Cytochrome P450 2C9): inconclusive

CCc1ccccc1NC(=O)N1CCc2ccccc2C1
IC50 [10]: > 29.9 µM (inactive) | EC50 [11]: 0.321 µM (active) | EC50 (cells [12]): > 29.9 µM (inactive) | IC50 (cells [13]): > 29.9 µM (inactive)

CN1CCN(CCCN2c3ccccc3Sc3ccc(Cl)cc32)CC1 [PROCHLORPERAZINE EDISYLATE]
IC50 [14]: 80 µM (active) | CC50 [15]: 65 µM (active) | AC50 [16]: 17.6 µM (active) | IC50 [17]: > 20 µM (inactive)

CCCCCCCCN1C(=O)[C@H](CC(=O)NCc2cccs2)C[C@@]2(C(=O)OCC)CCCC=C12
AC50 [5]: 17 µM (active) | AC50 [6]: 25.1 µM (active) | AC50 [7]: 16.8 µM (active) | AC50 [8]: 22.7 µM (active)

CN(C)CCNc1cc(-c2ccncc2)nc2ccccc12
AC50 [16]: 4.09 µM (active) | AC50 [9]: 17.2 µM (active)
